Results as given in patent publication US9018241B2, “Hetero-substituted acetanilide derivatives as analgesic agents” (Janssen Pharmaceutica N.V., priority 2003, dated 2015).

Key:
[1] = system: acetylcholine-induced abdominal constriction in mice; experiment: Mouse Abdominal Irritant Test (MAIT); type: in vivo; settings: 300 mg/kg oral, male CD1 mice, % Inhibition=100×(Number of Nonresponders)/(Number of Animals in Group), read-out: Effect @ 300 mg/kg (Antinociceptive Effect in Mouse Abdominal Irritant Test)
Method: Male CD1 mice (weighing from 18-24 g) are used to determine the antinociceptive effects associated with the compositions of the invention. The mice are all dosed orally with the compounds specified, dissolved in distilled water or suspended in 0.5% MethocelTM (hydroxypropyl methylcellulose) in water. The dosing volume is 10 mL/kg.
The procedure used in detecting and comparing the analgesic activity of different classes of analgesic drugs for which there is a good correlation with human efficacy is the prevention of acetylcholine-induced abdominal constriction in mice (H. Collier et al., Br. J. Pharmacol., 32, 295 (1968)).
Mice, intubated with various doses of the compound or vehicle such as distilled water, or distilled water 0.5% Methocel™ (hydroxypropyl methylcellulose) in water, are injected intraperitoneally with a challenge dose of acetylcholine bromide. The acetylcholine is completely dissolved in distilled water at a concentration of […] and injected at the rate of 0.20 mL/20 g. For scoring purposes, an “abdominal constriction” is defined as a contraction of the abdominal musculature accompanied by arching of the back and extension of the limbs. The mice are observed for 10 minutes for the presence or absence of the abdominal constriction response beginning immediately after receiving the acetylcholine dose, administered at a certain time after the oral administration of the test drug or vehicle. Each mouse is used only once.
The percent of inhibition of this response is calculated as follows: % Inhibition=100×(Number of Nonresponders)/(Number of Animals in Group)

[2] = system: rectal temperature of rats injected with yeast suspension; experiment: Antipyretic evaluation in yeast-injected rats; type: in vivo
Method: Groups of 10 male rats are weighed, color-coded, rectal temperatures taken (24 hours±15 minutes prior to dose administration) and recorded. Food is removed but water remains available ad libitum. Each rat is injected subcutaneously into the central dorsal region with 5 ml of a 15% yeast suspension. Twenty-three hours (±15 minutes) after yeast injection, body weights and rectal temperatures are taken and recorded. Twenty-four hours (±15 minutes) after yeast injection, the vehicle and test articles are administered orally. Temperatures are taken and recorded one hour (±5 minutes) following test article or vehicle administration. The mean rectal temperatures for the test article and vehicle control groups are calculated at 23 and 25 hours (±15 minutes) and subjected to an ANOVA followed by a Tukey HSD Multiple Comparison Test (p≦0.05)—Systat, version 9.0.

SMILES	responders at 300 mg/kg [1] [%]	decrease in body temperature relative to the vehicle-treated group ([2]; 600 mg/kg oral, ANOVA, Tukey HSD)	Antipyresis deg C. @ 600 mpk ([2]; 600 mpk oral, one hour after administration, 24 h after yeast injection) [deg C.]
O=C(Nc1ccc(O)cc1)[C@H]1CCCN1 [(R)-Pyrrolidine-2-carboxylic acid (4-hydroxy-phenyl)-amide]	20		
O=C(Nc1ccc(O)cc1)c1ccc[nH]1 [1H-Pyrrole-2-carboxylic acid (4-hydroxy-phenyl)-amide]	86.7		
O=C(CS)Nc1ccc(O)cc1 [N-(4-Hydroxy-phenyl)-2-mercapto-acetamide]	40		
O=C(Nc1ccc(O)cc1)c1ccccn1 [Pyridine-2-carboxylic acid (4-hydroxy-phenyl)-amide]	60	statistically significant (p≦1.05) decrease in body temperature	−2.17
CS(=O)(=O)CC(=O)Nc1ccc(O)cc1 [N-(4-Hydroxy-phenyl)-2-methanesulfonyl-acetamide]	40		
O=C(Nc1ccc(O)cc1)[C@@H]1CCCN1 [(S)-Pyrrolidine-2-carboxylic acid (4-hydroxy-phenyl)-amide]	40		
O=C(Nc1ccc(O)cc1)c1n[nH]c2ccccc12 [1H-Indazole-3-carboxylic acid (4-hydroxy-phenyl)-amide]	20		
Cc1cc(C(=O)Nc2ccc(O)cc2)n[nH]1 [5-Methyl-1H-pyrazole-3-carboxylic acid (4-hydroxy-phenyl)-amide]	73.3		
CSCC(=O)Nc1ccc(O)cc1 [N-(4-Hydroxy-phenyl)-2-methylsulfanyl-acetamide]	45		
